Patent publication US20240382498A1, “NOVEL INHIBITOR OF HYPE-MEDIATED AMPYLATION” (Purdue Research Foundation, priority 2023, published 2024)

Legend:
E234G HYPE = biological target: T1, E234G HYPE (Homo sapiens, UniProt Q9BVA6, E234G); test: Radioactive in-gel autoAMPylation assay with E234G HYPE and α-32P-ATP; type: biochemical; conditions: 10 μM compound
T1 construct: Δ102 (aa 103-458) HYPE constructs (WT, E234G, and E234G/H363A); His6-SUMO (cleaved yes); made in house; host or cells: E. coli BL21-DE3-RILP
T1 sequence (Q9BVA6 103-458 E234G): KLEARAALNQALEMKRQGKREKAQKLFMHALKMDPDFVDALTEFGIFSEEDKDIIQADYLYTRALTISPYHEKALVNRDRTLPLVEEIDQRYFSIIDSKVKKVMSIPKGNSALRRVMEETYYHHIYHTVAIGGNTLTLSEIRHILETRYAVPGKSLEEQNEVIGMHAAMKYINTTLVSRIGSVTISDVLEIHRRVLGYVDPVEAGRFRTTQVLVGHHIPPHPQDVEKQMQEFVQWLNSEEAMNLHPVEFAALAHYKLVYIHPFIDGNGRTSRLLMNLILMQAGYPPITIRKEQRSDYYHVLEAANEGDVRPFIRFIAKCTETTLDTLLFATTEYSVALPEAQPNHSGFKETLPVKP
Experimental: (§1) 1 μM of HYPE (final concentration) and (where specified) 5 μM of T229A BiP (final concentration) were preincubated with 10 μM DMSO-dissolved compound (final concentration) or equivalent volume of 100% DMSO at room temperature for 10 min in HTS Buffer. Reactions were run for 10 min at 30° C. and began with the addition of 0.01 μCi/μL α-32P-ATP (final concentration). All reactions were performed according to our previously described protocol for in vitro radioactive AMPylation assays19. Where specified, 5 μM of T229A BiP (final concentration) was added to reactions before the addition of compound.

[1] = biological target: T2, E234G HYPE AMPylation of T229A BiP (Homo sapiens, UniProt Q9BVA6, E234G); test: Radioactive in-gel T229A BiP AMPylation assay with E234G HYPE and α-32P-ATP; type: biochemical; conditions: 10 μM compound
T2 construct: Δ102 (aa 103-458) HYPE constructs (WT, E234G, and E234G/H363A); His6-SUMO (cleaved yes); made in house; host or cells: E. coli BL21-DE3-RILP
T2 sequence (Q9BVA6 103-458 E234G): T1 sequence (Q9BVA6 103-458 E234G)
Experimental: as §1

HeLa cells = test: MTT cell viability assay, HeLa; type: cell-based, human; conditions: 48 hr
Experimental: (§2) The cell lines were procured from ATCC (American Type Culture Collection) and cultured in DMEM (Dulbecco's Modified Eagle Medium) supplemented with 10% FBS (fetal bovine serum) without antibiotics. Cells were grown and maintained in a humidified incubator at 37° C. with 5% CO2. For the MTT assay, cells were trypsinized and harvested at ˜80-90% confluency and seeded in 96 well plates at a density of 1×10^4 cells per well. The seeded cells were incubated overnight and treated with 1 μM, 3 μM, 5 μM, 7 μM, 10 μM, 20 μM, 30 μM or 50 μM (final concentration) of DMSO-dissolved compound for 48 hr. To rule out vehicle induced toxicity, only 0.5% of final DMSO concentration was added to the cells. Post-incubation, the compound treatment was removed and replaced with 0.5 mg/ml (final concentration) of freshly prepared MTT solution. After incubating for 3.5 hr at 37° C., 5% CO2 humidified incubator, MTT was carefully removed without aspirating the formazan crystals and replaced with equivalent volume of DMSO to dissolve the formazan crystals. The plates were then read using a multi-plate reader at 570 nm. The absorbance was recorded and % viability was calculated according to the following equation:
(§3) [formula] • where, Abt is the absorbance of compound treated cells and Abc is the absorbance of control cells.

HEK 293 cells = test: MTT cell viability assay, HEK 293; type: cell-based, human; conditions: HEK 293, 10 μM, 48 hr
Experimental: as §2, §3

inhibition of E234G HYPE autoAMPylation in gel (E234G HYPE): bioactivity of I2.10 is mirrored
Compound: c1cn(-c2ccc(-c3nnc(-c4ccoc4)o3)cn2)cn1 [Compound I2.10]
inhibition of T229A BiP AMPylation in gel [1]: inhibitory efficacy against BiP AMPylation was reproducible | cell viability (HeLa cells; HeLa (so in the source), 50 μM): ~60% | cell viability (HeLa cells; HeLa, up to 50 μM): 100% | cell viability (HEK 293 cells): ~80%
